Assay results taken from US4906468A, “Insulin activity messengers, their antibodies, and thereof” (priority 1986, dated 1990).

Tests used:
[1] = system: phosphatidic acid in BC3 Hl myocytes; experiment: Phosphatidic acid production, [^3 H]myristic acid labeled myocytes; type: cell-based, murine; conditions: insulin, by 5 minutes
Description: (§1) Myocytes were incubated for 20 hrs. in serum free DMEM with [9,10^3 H] myristic acid (New England Nuclear), complexed 1:1 to bovine serum albumin. Insulin was added to cells in fresh media for the designated intervals, and reactions were stopped by removal of media and addition of 1 ml chloroform/methanol/IN HCl (200:100:1). 0.6 ml H2 O was added and upper aqueous phases were discarded following centrifugation at 500×g for 5 minutes. The lower, organic phases were dried under N2 and resuspended in 1 ml diethyl ether followed by addition of 1 […]. The upper ether phase was aspirated and the lower phase reextracted with 1 ml diethyl ether. The combined ether phases, containing diacylglycerol, were dried under N2, resuspended in chloroform and spotted on silica gel G plates which were preactivated at 60° C. for 1 hr. Plates were twice developed in petroleum ether/diethyl ether/glacia acetic acid (70:30:2). […] Lipids were scraped and radioactivity determined in a liquid scintillation counter.
(§2) The phosphodiesteratic cleavage of a phospolipid by insulin should also be reflected by increased production of diacylglycerol, which could serve as substrate for a diglyceride kinase, producing phosphatidic acid. Myocytes were preincubated with [^3 H]myristic acid and both diacylglycerol and phosphatidic acid labeling were evaluated by thin layer chromatography (FIG. 6).

[2] = system: pyruvate dehydrogenase; experiment: Production of pyruvate dehydrogenase modulating activity in crude extracts of plasma membrane derived supernatants; type: biochemical
[3] = system: glycolipid precursor in BC3 Hl cells; experiment: Radiolabel in glycolipid precursor (TLC), insulin treated cells; type: cell-based, murine
Description: (A) [^3 H]inositol and (B) [^3 H]glucosamine labeled cells were treated with or without 10 nM insulin. Following extraction and phase separation, the organic phase were dried under N2, resuspended in chloroform/methanol/H2 O (9:7:2); and spotted on oxalate impregnated Silica gel G plates. These were twice developed in chloroform/acetone/methanol/glacial acetic acid/H2 O (10:4:2:2:1). One cm regions were scraped and radioactivity determined by scintillation counting. Phosphoinositides were identified by iodine staining of standards.
Cells prelabeled with [^3 H]inositol were treated with 10 nM insulin for the designated intervals. Cells were extracted and phase separated as detailed in FIG. 7. Aqueous phases were chromatographed up to and including the SAX HPLC step (upper panel). Results reflect counts from a combination of Peaks I and II. The ratio of counts in these peaks were unchanged over the time course. The precursor residing in the organic phases was identified by the peak on TLC with an Rf =0.22, corresponding to the species depleted by PI-PLC (FIG. 10).

[4] = system: BC3 Hl cells; experiment: Incorporation of radiolabel into water soluble products (SAX HPLC Peaks I and II), insulin treated cells; type: cell-based, murine; conditions: 10 nM insulin
Description: BC3 Hl cells were cultured at 37° C. in Dubelco's Minimal Essential Medium in the presence of 20% NU serum (Collaborative Research) on collagen coated 10 mm miniwells. Cells (1×10^6 /well) were preincubated with 10 μCi A) [2,6^3 H]myoinositol or B) [1,6^3 H]glucosamine (New England Nuclear) for 20 hours in the presence of 20% Nu Serum. Insulin was added to cells in monolayer in serum free media at a final concentration of 10 nM. Reactions were terminated by removal of media and addition of 1 ml chloroform/methanol/IN HCl (200:100:1), followed by addition of 0.5 ml 10 mM formic acid. Organic and aqueous phases were separated by centrifugation at 500×g for 5 min.
The water soluble labeled products were purified by a modification of a previously described protocol for purification of cAMP phosphodiesterase (PDE) modulators. The aqueous phases were chromatographed on DEAE-Cellulose, eluted with 0.25 TEA-formate, pH 3.75. This fraction was eluted through a C-18 reversed phase sepak in the same buffer. Following lyophilization, the solution was eluted through Dowex 50WX-4 in 50 mM TEA-formate. pH 3.0. […] One ml fractions were counted. The two peaks of insulin stimulated radioactivity coeluted with similarly purified, myocyte derived PDE modulating activities. […]

[5] = system: low Km cAMP phosphodiesterase (PDE) from rat adipocyte particulate fraction; experiment: Generation of PDE messenger from liver membranes; extracts assayed for modulation of cAMP phosphodiesterase; type: biochemical
Description: These were generated from bovine liver particulate fractions by a modification of previously described methods. Particulate fraction was prepared from 100 g of bovine liver, and suspended in […] ammonium bicarbonate, pH 7.4. (Buffer A) at a final concentration of 2-4 mg protein/ml. This solution was incubated with 10 mM for 10 min at 37° C., acidified to pH 4.0 with formic acid and sedimented at 45,000 g for 20 min. An equal volume of chloroform/methanol (2:1) was added to the supernatant, and the upper phase was aspirated and methanol was evaporated.
In the tests the results of which are tabulated above, liver membranes were treated as indicated for 10 min at 37° C., centrifuged and supernatants were extracted and purified up to and including the Dowex 50WX-4 step as described earlier herein under "Experimental Procedures". Partially purified extracts were assayed for ability to modulate cAMP phosphodiesterase. Basal activity was 56.2 pmoles/mg protein^-1 -min^-1.

[6] = system: polyphosphoinositides; conditions: cited from earlier work
[7] = system: diacylglycerol in BC3 Hl myocytes; experiment: Diacylglycerol production, [^3 H]myristic acid labeled myocytes; type: cell-based, murine; conditions: insulin
Description: as §1, §2

**Q.** With “Insulin: Monocomponent bovine insulin from Wellcome Laboratores” as the substance, how does the “increase in levels of [^3 H]myristate phosphatidic acid” value [1] read?
**A.** 2 fold

**Q.** And the “production of pyruvate dehydrogenase modulating activity” value [2]?
**A.** enhanced

**Q.** What about the “time course of [^3 H]inositol incorporation into the precursor” value ([3]; 10 nM insulin) of the same substance?
**A.** biphasic

**Q.** What about the “decrease in [^3 H]inositol counts in precursor” value ([3]; 10 nM insulin, 30 sec) of the same substance?
**A.** 20%

**Q.** What about the “increase in [^3 H]inositol radioactivity in precursor over control levels” value ([3]; 10 nM insulin, after 30 sec) of the same substance?
**A.** 60%

**Q.** And the “time of hydrolysis of the putative glycolipid precursor and appearance of the products” value ([3]; insulin dependent)?
**A.** less than 1 min

**Q.** What about the “increase in incorporation of [^3 H]glucosamine in precursor peak” value ([3]; insulin, 10 min) of the same substance?
**A.** approximately 40%

**Q.** And the “increase in incorporation of [^3 H]inositol in precursor peak” value ([3]; insulin, 10 min)?
**A.** approximately 40%

**Q.** What about the “labeling of other lipids” value ([3]; insulin, 10 min) of the same substance?
**A.** no significant change

**Q.** What about the radioactivity in precursor ([3]; intact cells) of the same substance?
**A.** rapidly diminished

**Q.** What about the “incorporation of [^3 H]inositol into two peaks (I and II)” value [4] of the same substance?
**A.** increased the incorporation of [^3 H]inositol into two peaks

**Q.** And the “percent of maximal effect on production of [^3 H]inositol containing products” value ([4]; 30 sec, Peaks I and II combined)?
**A.** Seventy

**Q.** What about the “stimulation of PDE modulating activity / increase in production of messengers from membranes” value ([5]; after partial purification) of the same substance?
**A.** 4 fold

**Q.** And the “PDE Activity” value ([5]; extracts of liver membranes treated 10 min at 37° C., 1.0 nM insulin, 1.0 μg/ml PI-PLC, basal 56.2)?
**A.** 138.0 pmol mg protein^-1 min^-1

**Q.** And the hydrolysis of polyphosphoinositides [6]?
**A.** does not stimulate hydrolysis of polyphosphoinositides

**Q.** And the “maximal increase in labeled diacylglycerol over basal” value ([7]; by 5-10 minutes)?
**A.** 50%

**Q.** What about the labeled diacylglycerol level ([7]; by 2 minutes) of the same substance?
**A.** near basal levels
